Test results as given in US20230132667A1, “DRUG-LIKE MOLECULES AND METHODS FOR THE THERAPEUTIC TARGETING OF VIRAL RNA STRUCTURES” (UNIVERSITY OF WASHINGTON, priority 2020, published 2023).
Non-standard residues stand in square brackets, D forms with d. Agb = N=C(N)NCC[C@H](N)C(=O)O; Dab = NCC[C@H](N)C(=O)O

Legend:
[1] = test system: Tat-dependent reactivation; conditions: cited from earlier work
HIV TAR [2] = assay: Target-detected NMR (TOCSY, 1D imino spectra; stage 3); assay type: binding, HIV-1; conditions: chemical shift changes, TOCSY / 1D 1H imino spectra
Protocol: Stage 3. The third stage in the screening cascade involves monitoring changes in the NMR spectra of the RNA target to identity where on the target the compound binds and examine the structural characteristics of the interaction. This step is conducted in the same […] buffer used for screening, prepared either in 95% H2O/5% D2O (water buffer) or 99.99% D2O (D2O buffer) to monitor different classes of proton resonances (FIGS. 10A and 10B). Uniform labeling of bases with ^13C and ^15N can also be performed, but this is relatively expensive.
Target detect NMR assays to measure RNA-ligand interactions. Transcribed RNA sequences (at natural isotopic abundance, along with ^15N/^13C enriched or selectively labeled ^2H samples) are snap-cooled in 250-500 μL NMR buffer (50 mM d9 bis-Tris pH 6.5, 50 mM NaCl) by heating to 95° C. for 4 min then placed at −20° C. until frozen. All ligand stocks were dissolved in 10-20 mM H2O, D2O or DMSO depending on ligand solubility. […] Ligand interactions are detected by changes in chemical shift through a series of NMR experiments, including but not limited to 1D ^1H and 2D ^1H-^1H TOCSY, ^1H-^1H NOESY, ^1H-^1H EXSY, ^15N-^1H HSQC, and ^13C-^1H HSQC experiments, which are used to map the binding site of the ligand on the RNA. […]

HIV TAR [3] = assay: Single point ligand-detected NMR relaxation assay in low salt buffer (stage 1); assay type: binding, HIV-1; conditions: 100 μM small molecule in low salt buffer, 10 μM RNA
From the text: (§1) For initial screening and hit identification, a relaxation edited ligand-detect method is used to detect binding under low salt conditions. These initial conditions are chosen to facilitate the discovery of even low affinity compounds with favorable chemical characteristics. Binding compounds are identified through changes in peak height when comparing spectra for RNA-free and RNA-bound ligand (FIG. 8). The change in peak height is proportional to the increase in ligand line width, compared to the free small molecule, which occurs upon binding to the larger biomolecule. This NMR method is agnostic to biomolecular target, as it only depends on the longer rotational correlation time (Tc) of the small molecule bound in a complex with a much larger biomolecular target, which has a much […] correlation time; other NMR methods (e.g., STD) can be used as well.
(§2) Stage 1. […] The free ligand linewidths of compounds dissolved at concentration of 100 μM were quantified and compared to the ligand linewidths observed after addition of 10 μM RNA target. […]
(§3) Small molecule hit identification and tiered approach to ligand-detected NMR screening. In order to identify small molecules that bind to RNA and quantify the strength of the interaction, a tiered approach to NMR screening involving both ligand- and target-detected NMR experiments was used. […]

pre-miR-21 = assay: as above; assay type: binding; conditions: 100 μM small molecule in low salt buffer, 10 μM RNA
From the text: as §1, §2, §3

HIV TAR [4] = assay: 2-aminopurine (2AP) fluorescence binding assay; set-up: species or system HIV-1; conditions: 2AP-labeled HIV TAR, excess tRNA; single binding event; read-out: affinity by fitting Equation 1
Protocol: The fourth stage in the screening cascade quantifies binding using an orthogonal biophysical method.
To quantify binding of the compounds to HIV TAR, a 2-amino purine method was used. In this assay, U25 on HIV TAR was substituted with 2-aminopurine and binding assays were conducted on a Horiba Tau fluorometer.
2-AP binding assays. Fluorescence intensity binding assays were conducted using a method based on the incorporation of a single fluorescent base analogue (2-amino-purine, 2AP) in place of U25 for HIV TAR, and by monitoring changes in the reporter emission fluorescence intensity at 362 nm upon small molecule titration. Each experiment was collected in duplicate with 50 nM 2AP-TAR titrated with 5 mL of ligand stock solutions prepared by serial dilution. Methods were followed with 250×fold excess yeast tRNA added to the buffer as a competitor to reduce non-specific binding. Data were collected on a Horiba FL3-21tau Fluorescence Spectrophotometer, exported to Graphpad Prism v.8.1.1 and fit to Equation 1.
where Y is the measured fluorescence at 362 nm, Yi is fluorescence of the fully bound target, Yo is the fluorescence of the unbound RNA, Rt is total RNA concentration, Lt is total ligand concentration and Kd is the binding affinity.

## cyclo(P(dab)VRTRKGRRI(NOR)Ip) (cyclo(P[Dab]VRTRKGRRI[Agb]I[dP])) [JB181]
[1]
  inhibition of Tat-dependent reactivation in cells: only moderately inhibits

## CN(C)C(=O)c1cc2cnc(Nc3ccc(N4CCNCC4)cn3)nc2n1C1CCCC1 [Ribociclib]
HIV TAR [2]
  binding to HIV TAR by target-detected NMR (qualitative): high nM binding
HIV TAR [3]
  single point binding response to HIV TAR: binding responses
pre-miR-21
  single point binding response to pre-miR-21: binding responses
HIV TAR [4]
  Kd: 215 ± 56 nM
